From US20180105840A1, “PROCESS FOR INDUSTRIAL PRODUCTION OF CHIRAL-1,1-DIFLUORO-2-PROPANOL” (PUBLIC UNIVERSITY CORPORATION TOYAMA PREFECTURAL UNIVERSITY, priority 2015, published 2018) come the findings set out here.

The first assay concerns Ogataea polymorpha strain NBRC0799-derived carbonyl reductase. Put plainly: Reactivity of purified Ogataea polymorpha strain NBRC0799-derived carbonyl reductase to substrates (reduction reaction, NADH decrease at 340 nm). The conditions noted are these: (a) Reduction reaction; substrate 50 mM, NADH 0.1 mM, 168 mM sodium phosphate buffer pH 6.0, 30° C.; enzyme activity with acetone as substrate defined as 100%. Format: biochemical. Here is the method: For enzyme activity measurement, NADH was added at a final concentration of 0.1 mM to 168 mM sodium phosphate buffer (pH 6.0) containing an enzyme or a microorganism, and 1,1-difluoroacetone was added at a final concentration of 50 mM to this reaction solution to initiate the reaction (reaction solution volume: 1 mL). The reaction was conducted at 30° C., and decreases in NADH were monitored with a spectrophotometer (V-630BIO, JASCO Corporation, Japan) as changes in absorbance at 340 nm. It should be noted that the enzyme activity was determined assuming that the amount of enzyme required to catalyze the oxidation of 1 μmol NADH per minute was defined as 1 U (unit).
To 168 mM sodium phosphate buffer (pH 6.0) containing the enzyme purified from Ogataea polymorpha strain NBRC0799, NADH was added at a final concentration of 0.1 mM, and the substrates indicated in Table B below were each added at a final concentration of 50 mM to this reaction solution to initiate the reaction (reaction solution volume: I mL). The reaction was conducted at 30° C., and decreases in NADH were measured with a spectrophotometer (V-630BIO, JASCO Corporation, Japan) as changes in absorbance at 340 nm.
Relative activity refers to the ratio of enzyme activity (conversion speed) for each substrate in comparison with the enzyme activity when using acetone as a substrate, which is defined to be 100%. When 1,1-difluoroacetone or 1,1,1-trifluoroacetone is provided as a substrate, the conversion speed per se of the enzyme is reduced (many hours are required to complete the reaction). In the case of acetone, its two methyl groups are equal, so that acetone will be captured by a recognition site in the enzyme without distinction between these two methyl groups. However, in the case of 1,1-difluoroacetone and 1,1,1-trifluoroacetone, their capture by an active site in the enzyme would require recognition between a fluoromethyl group and a methyl group, so that the speed of their capture becomes slower. On the other hand, in the case of 1,3-difluoroacetone, the fluorine atoms introduced thereinto would alter electronegativity and so on, when compared to acetone.
Consider `CC=O` [Acetaldehyde], for which the “Relative Activity (%)” value was 330%.
On to `CC(C)=O` [Acetone, reference compound], for which the “Relative Activity (%)” value is 100%.
Turning to `CC(=O)C(F)F` [1,1-Difluoroacetone], the “Relative Activity (%)” value turned out to be 58%.
Regarding `CC(=O)CC(F)(F)F` [4,4,4-Trifluoro-2-butanone], the “Relative Activity (%)” value came to 228%.
For `CCC=O` [Propionaldehyde], the “Relative Activity (%)” value came to 141%.
Still for that read-out and setting: as for `O=C(CF)CF` [1,3-Difluoroacetone], the figure is 52%; as for `CCC(C)=O` [2-Butanone], 132%.
Regarding `CCCC=O` [Butyraldehyde], the “Relative Activity (%)” value worked out at 193%.
Regarding `CC(=O)C(F)(F)F` [1,1,1-Trifluoroacetone], the “Relative Activity (%)” value is listed as 50%.
As for `CC(=O)CF` [Fluoroacetone], the “Relative Activity (%)” value amounted to 211%.

The assay is the same for the next values; noted with them: substrate 50 mM, NADH 0.1 mM, pH 6.0, 30° C.
As to `CC(=O)C(F)F` [1,1-Difluoroacetone], the “conversion speed of the enzyme in comparison with acetone as a substrate” value is reported as “reduced”.
For `CC(=O)C(F)(F)F` [1,1,1-Trifluoroacetone], the “conversion speed of the enzyme in comparison with acetone as a substrate” value is “reduced”.
